Data as given in patent US20120189603A1, “STORAGE-STABLE, SYNERGISTIC MICROBICIDAL CONCENTRATES CONTAINING AN ISOTHIAZOLONE, AN AMINE AND AN OXIDIZING AGENT” (L"AIR LIQUIDE, SOCIETE ANONYME POUR L'ETUDE ET L' …, priority 2009, published 2012).

Legend:
Test in all cases: Germ-count reduction test, sterile town water, pH adjusted to 8.2
Design in all cases: key: −: growth-free; +: slight growth; ++: moderate growth; +++: considerable growth; ++++: massive growth; L: lawn-like growth
Settings in all cases: +0.01% 2
[1] = test system: C. albicans; assay type: cell-based, Candida albicans
Method: (§1) The pH was adjusted to 8.2 with HCl.
A 4-day-old Candida albicans culture (CSA+grape sugar) is elutriated with 5 ml of physiological sodium chloride solution and adjusted in accordance with a barium sulphate standard (see DVG Guideline). The titre of the Candida albicans suspension is 10^8 CFU/ml.
(§2) A dilution series of four concentrations is prepared from the active ingredient to be tested and poured into 10 ml sterile tubes. One dilution series is required per test germ. Each tube is inoculated with 0.1 ml of the individual germ suspensions.
(§3) […] The bacteria are streaked on CSA and incubated for 48 hours at 37° C. (Pseudomonas aeruginosa and Staphylococcus aureus) or 25° C. (Pseudomonas fluorescens/Pseudomonas putida). The fungi are streaked on Sabouraud agar and incubated for 48 hours at 37° C. (Candida albicans) and 25° C. (Aspergillus niger).

[2] = test system: P. funiculosum; assay type: cell-based
[3] = test system: S. aureus; assay type: cell-based, Staphylococcus aureus
Method: as §1
(§4) 24-Hour CSL cultures are prepared from 24-hour CS slant agar cultures of Staphylococcus aureus/Pseudomonas aeruginosa. Incubation takes place at 37° C.
(§5) The titre of the bacteria suspensions is ca. 10^9 CFU/ml.
as §2, §3

[4] = test system: A. niger; assay type: cell-based, Aspergillus niger
Method: as §1
A 7-14-day-old Aspergillus niger culture on Sabouraud agar is elutriated with 5 ml of NaCl, filtered through a glass filter containing glass wool and topped up to 200 ml. This suspension has a titre of ca. 10^7 CFU/ml.
as §2, §3

[5] = test system: E. coli; assay type: cell-based
[6] = test system: P. aeruginosa; assay type: cell-based, Pseudomonas aeruginosa
Method: as §1, §4, §5, §2, §3

CCCCCCCCCCCCN(CCCN)CCCN [compound 2, bis(aminopropyl)dodecylamine]
growth ([1]; 1 h): − | growth ([1]; 3 h): − | growth ([1]; 6 h): − | growth ([1]; 24 h): − | growth ([2]; 1 h): − | growth ([2]; 3 h): − | growth ([2]; 6 h): − | growth ([2]; 24 h): − | growth ([3]; 1 h): − | growth ([3]; 3 h): − | growth ([3]; 6 h): − | growth ([3]; 24 h): − | growth ([4]; 1 h): − | growth ([4]; 3 h): − | growth ([4]; 6 h): − | growth ([4]; 24 h): − | growth ([5]; 1 h): + | growth ([5]; 3 h): − | growth ([5]; 6 h): − | growth ([5]; 24 h): − | growth ([6]; 1 h): + | growth ([6]; 3 h): + | growth ([6]; 6 h): − | growth ([6]; 24 h): −
